Among the data in patent EP4803081A2 are ring closure, yield of all isomers values, retold here.

Read-outs that look alike come from different tables or passages of the source.

The conditions of the data set: ester bond.

As for `CCn1c(-c2cc(N3CCN(C4CC4)CC3)cnc2[C@H](C)OC)c2c3cc(ccc31)C1=CCCN(C1)C[C@H](NC(=O)OC(C)(C)C)C(=O)N1CCC[C@H](N1)C(=O)OCC(C)(C)C2`, the ring closure, yield of all isomers (from CCn1c(-c2cc(N3CCN(C4CC4)CC3)cnc2[C@H](C)OC)c(CC(C)(C)CO)c2cc(C3=CCCN(C[C@H](NC(=O)OC(C)(C)C)C(=O)N4CCC[C@@H](C(=O)O)N4)C3)ccc21, EDCI/HOBt/DIPEA, DCM, 10.0 mM, 35.0 °C, 16.0 h) worked out at 53%. For the setting “from CCn1c(-c2cc(N3CCN(C(=O)OCc4ccccc4)CC3)cnc2[C@H](C)OC)c(CC(C)(C)CO)c2cc(-c3csc(C[C@H](NC(=O)OC(C)(C)C)C(=O)N4CCC[C@@H](C(=O)O)N4)n3)ccc21, EDCI/HOBt/DIPEA, MeCN, 10.34 mM, 25.0 °C, 16.0 h”, `CCn1c(-c2cc(N3CCN(C(=O)OCc4ccccc4)CC3)cnc2[C@H](C)OC)c2c3cc(ccc31)-c1csc(n1)C[C@H](NC(=O)OC(C)(C)C)C(=O)N1CCC[C@H](N1)C(=O)OCC(C)(C)C2` returned a ring closure, yield of all isomers of 55%. In the case of `CO[C@@H](C)c1ncc(N2CCN(C3CC3)CC2)cc1-c1c2c3cc(ccc3n1CC(F)(F)F)-c1cccc(c1)C[C@H](NC(=O)OC(C)(C)C)C(=O)N1CCC[C@H](N1)C(=O)OCC(C)(C)C2`, the ring closure, yield of all isomers (from CO[C@@H](C)c1ncc(N2CCN(C3CC3)CC2)cc1-c1c(CC(C)(C)CO)c2cc(-c3cccc(C[C@H](NC(=O)OC(C)(C)C)C(=O)N4CCC[C@@H](C(=O)O)N4)c3)ccc2n1CC(F)(F)F, EDCI/HOBt/DIPEA, DCM, 108.7 mM, 25.0 °C, 16.0 h) worked out at 79%. With `CO[C@@H](C)c1ncc(N2CCN(C3CC3)CC2)cc1-c1c2c3cc(ccc3n1CC(F)(F)F)N1CCO[C@@H](C[C@H](NC(=O)OC(C)(C)C)C(=O)N3CCC[C@H](N3)C(=O)OCC(C)(C)C2)C1`, under “from CO[C@@H](C)c1ncc(N2CCN(C3CC3)CC2)cc1-c1c(CC(C)(C)CO)c2cc(N3CCO[C@@H](C[C@H](NC(=O)OC(C)(C)C)C(=O)N4CCC[C@@H](C(=O)O)N4)C3)ccc2n1CC(F)(F)F, EDCI/HOBt/DIPEA, DCM, 9.22 mM, 25.0 °C, 16.0 h”, the ring closure, yield of all isomers was found to be 64%. Compound `CCn1c(-c2cc(N3CCN4CCCC[C@@H]4C3)cnc2[C@H](C)OC)c2c3cc(ccc31)N1CCO[C@@H](C[C@H](NC(=O)OC(C)(C)C)C(=O)N3CCC[C@H](N3)C(=O)OCC(C)(C)C2)C1` showed a ring closure, yield of all isomers (from CCn1c(-c2cc(N3CCN4CCCC[C@@H]4C3)cnc2[C@H](C)OC)c(CC(C)(C)CO)c2cc(N3CCO[C@@H](C[C@H](NC(=O)OC(C)(C)C)C(=O)N4CCC[C@@H](C(=O)O)N4)C3)ccc21, EDCI/HOBt/DIPEA, DMF, 11.2 mM, 25.0 °C, 16.0 h) of 73%.

Take `CCn1c(-c2cc(N3CCN4CCCC[C@@H]4C3)cnc2[C@H](C)OC)c2c3cc(ccc31)-c1csc(n1)C[C@H](NC(=O)OC(C)(C)C)C(=O)N1CCC[C@H](N1)C(=O)OCC(C)(C)C2`: the ring closure, yield of all isomers (from CCn1c(-c2cc(N3CCN4CCCC[C@@H]4C3)cnc2[C@H](C)OC)c(CC(C)(C)CO)c2cc(-c3csc(C[C@H](NC(=O)OC(C)(C)C)C(=O)N4CCC[C@@H](C(=O)O)N4)n3)ccc21, EDCI/HOBt/DIPEA, DCM, 11.3 mM, 25.0 °C, 16.0 h) was 49%. Under “from CCn1c(-c2cc(N3CCN(C4CC4)CC3)cnc2[C@H](C)OC)c(CC(C)(C)CO)c2cc(N3CCO[C@@H](C[C@H](NC(=O)OCc4ccccc4)C(=O)N4CCC[C@@H](C(=O)O)N4)C3)ccc21, EDCI/HOBt/DIPEA, DCM, 11.25 mM, 30.0 °C, 16.0 h”, `CCn1c(-c2cc(N3CCN(C4CC4)CC3)cnc2[C@H](C)OC)c2c3cc(ccc31)N1CCO[C@@H](C[C@H](NC(=O)OCc3ccccc3)C(=O)N3CCC[C@H](N3)C(=O)OCC(C)(C)C2)C1` came in with a ring closure, yield of all isomers of 50%. For the compound `CO[C@@H](C)c1ncc(N2CCN(C3CC3)CC2)cc1-c1c2c3cc(ccc3n1CC(F)(F)F)-c1csc(n1)C[C@H](NC(=O)OC(C)(C)C)C(=O)N1CCC[C@H](N1)C(=O)OCC(C)(C)C2`, the ring closure, yield of all isomers (from CO[C@@H](C)c1ncc(N2CCN(C3CC3)CC2)cc1-c1c(CC(C)(C)CO)c2cc(-c3csc(C[C@H](NC(=O)OC(C)(C)C)C(=O)N4CCC[C@@H](C(=O)O)N4)n3)ccc2n1CC(F)(F)F, EDCI/HOBt/DIPEA, DCM, 21.07 mM, 25.0 °C, 16.0 h) was 51%. Consider `CCn1c(-c2cc(N3CCN4CCOC[C@@H]4C3)cnc2[C@H](C)OC)c2c3cc(ccc31)-c1cccc(c1)C[C@H](NC(=O)OC(C)(C)C)C(=O)N1CCC[C@H](N1)C(=O)OCC(C)(C)C2`, for which the ring closure, yield of all isomers (from CCn1c(-c2cc(N3CCN4CCOC[C@@H]4C3)cnc2[C@H](C)OC)c(CC(C)(C)CO)c2cc(-c3cccc(C[C@H](NC(=O)OC(C)(C)C)C(=O)N4CCC[C@@H](C(=O)O)N4)c3)ccc21, EDCI/HOBt/DIPEA, DCM, 7.56 mM, 25.0 °C, 16.0 h) was 81%. As for `CCn1c(-c2cc(N3CCN4CCC[C@@H]4C3)cnc2[C@H](C)OC)c2c3cc(ccc31)-c1cccc(c1)C[C@H](NC(=O)OC(C)(C)C)C(=O)N1CCC[C@H](N1)C(=O)OCC(C)(C)C2`, for the setting “from CCn1c(-c2cc(N3CCN4CCC[C@@H]4C3)cnc2[C@H](C)OC)c(CC(C)(C)CO)c2cc(-c3cccc(C[C@H](NC(=O)OC(C)(C)C)C(=O)N4CCC[C@@H](C(=O)O)N4)c3)ccc21, EDCI/HOBt/DIPEA, DCM, 16.7 mM, 25.0 °C, 16.0 h”, the ring closure, yield of all isomers is 42%. On to `CO[C@@H](C)c1ncc(N2CCN3CCOC[C@@H]3C2)cc1-c1c2c3cc(ccc3n1CC(F)(F)F)-c1cccc(c1)C[C@H](NC(=O)OC(C)(C)C)C(=O)N1CCC[C@H](N1)C(=O)OCC(C)(C)C2`, for which the ring closure, yield of all isomers (from CO[C@@H](C)c1ncc(N2CCN3CCOC[C@@H]3C2)cc1-c1c(CC(C)(C)CO)c2cc(-c3cccc(C[C@H](NC(=O)OC(C)(C)C)C(=O)N4CCC[C@@H](C(=O)O)N4)c3)ccc2n1CC(F)(F)F, EDCI/HOBt/DIPEA, DCM, 5.34 mM, 25.0 °C, 16.0 h) is 98%.

On to `CCn1c(-c2cccnc2[C@H](C)OC)c2c3cc(ccc31)-c1csc(n1)C[C@H](NC(=O)OC(C)(C)C)C(=O)N1CCC[C@H](N1)C(=O)OCC(C)(C)C2`, for which, under “from CCn1c(-c2cccnc2[C@H](C)OC)c(CC(C)(C)CO)c2cc(-c3csc(C[C@H](NC(=O)OC(C)(C)C)C(=O)N4CCC[C@@H](C(=O)O)N4)n3)ccc21, EDCI/HOBt/DIPEA, DCM, 12.65 mM, 25.0 °C, 16.0 h”, the ring closure, yield of all isomers came out at 81%. With `CC1(C)COC(=O)[C@@H]2CCCN(N2)C(=O)[C@@H](NC(=O)OC(C)(C)C)Cc2cccc(c2)-c2ccc3[nH]c(I)c(c3c2)C1`, where the note is “from CC(C)(CO)Cc1c(I)[nH]c2ccc(-c3cccc(C[C@H](NC(=O)OC(C)(C)C)C(=O)N4CCC[C@@H](C(=O)O)N4)c3)cc12, EDCI/HOBt/DIPEA, DCM, 12.77 mM, 0.0 °C, 16.0 h”, the ring closure, yield of all isomers turned out to be 79.8%.

Where the note is “from CCn1c(-c2cccnc2[C@H](C)OC)c(CC(C)(C)CO)c2cc(N3CCO[C@@H](C[C@H](NC(=O)OCc4ccccc4)C(=O)N4CCC[C@@H](C(=O)O)N4)C3)ccc21, EDCI/HOBt/DIPEA, DCM, 12.75 mM, 25.0 °C, 16.0 h”, `CCn1c(-c2cccnc2[C@H](C)OC)c2c3cc(ccc31)N1CCO[C@@H](C[C@H](NC(=O)OCc3ccccc3)C(=O)N3CCC[C@H](N3)C(=O)OCC(C)(C)C2)C1` gave a ring closure, yield of all isomers of 66%. Under “from CCn1c(-c2cc(N3CCN4CCCC[C@@H]4C3)cnc2[C@H](C)OC)c(CC(C)(C)CO)c2cc(-c3cccc(C[C@H](NC(=O)OC(C)(C)C)C(=O)N4CCC[C@@H](C(=O)O)N4)c3)ccc21, EDCI/HOBt/DIPEA, DCM, 5.81 mM, 25.0 °C, 16.0 h”, `CCn1c(-c2cc(N3CCN4CCCC[C@@H]4C3)cnc2[C@H](C)OC)c2c3cc(ccc31)-c1cccc(c1)C[C@H](NC(=O)OC(C)(C)C)C(=O)N1CCC[C@H](N1)C(=O)OCC(C)(C)C2` came in with a ring closure, yield of all isomers of 34%. `CCn1c(-c2cc(N3CCN4CCOC[C@@H]4C3)cnc2[C@H](C)OC)c2c3cc(ccc31)C1=CCCN(C1)C[C@H](NC(=O)OC(C)(C)C)C(=O)N1CCC[C@H](N1)C(=O)OCC(C)(C)C2` had a ring closure, yield of all isomers (from CCn1c(-c2cc(N3CCN4CCOC[C@@H]4C3)cnc2[C@H](C)OC)c(CC(C)(C)CO)c2cc(C3=CCCN(C[C@H](NC(=O)OC(C)(C)C)C(=O)N4CCC[C@@H](C(=O)O)N4)C3)ccc21, EDC·HCl/HOBt/DIPEA, DCM, 11.3 mM, 0.0 °C, 2.0 h) of 67%. Under “from CO[C@@H](C)c1ncc(N2CCN3CCCC[C@@H]3C2)cc1-c1c(CC(C)(C)CO)c2cc(-c3cccc(C[C@H](NC(=O)OC(C)(C)C)C(=O)N4CCC[C@@H](C(=O)O)N4)c3)ccc2n1CC(F)(F)F, EDCI/HOBt/DIPEA, DCM, 12.85 mM, 0.0 °C, 16.0 h”, `CO[C@@H](C)c1ncc(N2CCN3CCCC[C@@H]3C2)cc1-c1c2c3cc(ccc3n1CC(F)(F)F)-c1cccc(c1)C[C@H](NC(=O)OC(C)(C)C)C(=O)N1CCC[C@H](N1)C(=O)OCC(C)(C)C2` had a ring closure, yield of all isomers of 65%. `CCn1c(-c2cc(N3CCN4CCCC[C@@H]4C3)cnc2[C@H](C)OC)c2c3cc(ccc31)C1=CCCN(C1)C[C@H](NC(=O)OC(C)(C)C)C(=O)N1CCC[C@H](N1)C(=O)OCC(C)(C)C2`: the ring closure, yield of all isomers (from CCn1c(-c2cc(N3CCN4CCCC[C@@H]4C3)cnc2[C@H](C)OC)c(CC(C)(C)CO)c2cc(C3=CCCN(C[C@H](NC(=O)OC(C)(C)C)C(=O)N4CCC[C@@H](C(=O)O)N4)C3)ccc21, EDC•HCl/HOBt/DIPEA, DCM, 11.3 mM, 0.0 °C, 16.0 h) came out at 66%. For the compound `CCn1c(-c2cccnc2[C@H](C)OC)c2c3cc(ccc31)C1=CCCN(C1)CC(NC(=O)OC(C)(C)C)C(=O)N1CCC[C@H](N1)C(=O)OCC(C)(C)C2` (some centres unmarked), the ring closure, yield of all isomers (from CCn1c(-c2cccnc2[C@H](C)OC)c(CC(C)(C)CO)c2cc(C3=CCCN(CC(NC(=O)OC(C)(C)C)C(=O)N4CCC[C@@H](C(=O)O)N4)C3)ccc21, EDCI/HOBt/DIPEA, DCM, 7.14 mM, 30.0 °C, 16.0 h) is 40%. Turning to `CCn1c(-c2cc(N3CCN4CCOC[C@@H]4C3)cnc2[C@H](C)OC)c2c3cc(ccc31)-c1csc(n1)C[C@H](NC(=O)OC(C)(C)C)C(=O)N1CCC[C@H](N1)C(=O)OCC(C)(C)C2`, for the setting “from CCn1c(-c2cc(N3CCN4CCOC[C@@H]4C3)cnc2[C@H](C)OC)c(CC(C)(C)CO)c2cc(-c3csc(C[C@H](NC(=O)OC(C)(C)C)C(=O)N4CCC[C@@H](C(=O)O)N4)n3)ccc21, EDCI/HOBt/DIPEA, DCM, 11.3 mM, 25.0 °C, 16.0 h”, the ring closure, yield of all isomers came to 52%.
